Results as given in PubChem BioAssay (NCI).
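Cells were grown in 96-well plates and exposed to each compound for 48 hours at five concentrations; endpoints were interpolated linearly between bracketing concentrations, or set to the highest concentration if not reached. Definition used: TGI = concentration required for complete inhibition of growth.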

Experiments:
Experiment in all cases: NCI-60 cell line screen, 48 h
BT-549 breast = tested on: BT-549 breast
COLO 205 colon = tested on: COLO 205 colon
HOP-92 NSCLC = tested on: HOP-92 NSCLC
MDA-N = tested on: MDA-N
MOLT-4 leukemia = tested on: MOLT-4 leukemia
NCI-H522 lung = tested on: NCI-H522 lung
OVCAR-8 ovarian = tested on: OVCAR-8 ovarian
SK-MEL-28 melanoma = tested on: SK-MEL-28 melanoma
SK-MEL-5 melanoma = tested on: SK-MEL-5 melanoma
SNB-75 CNS = tested on: SNB-75 CNS
TK-10 renal = tested on: TK-10 renal
U251 CNS = tested on: U251 CNS
UACC-257 melanoma = tested on: UACC-257 melanoma
RXF 393 renal = tested on: RXF 393 renal

Structure (SMILES)	TGI (BT-549 breast)	TGI (COLO 205 colon)	TGI (HOP-92 NSCLC)	TGI (MDA-N)	TGI (MOLT-4 leukemia)	TGI (NCI-H522 lung)	TGI (OVCAR-8 ovarian)	TGI (SK-MEL-28 melanoma)	TGI (SK-MEL-5 melanoma)	TGI (SNB-75 CNS)	TGI (TK-10 renal)	TGI (U251 CNS)	TGI (UACC-257 melanoma)	TGI (RXF 393 renal)
CCOC(=O)c1c(SCCO)n(-c2ccccc2)c(=S)n(-c2ccccc2)c1=O	> 100 µM	> 100 µM	> 100 µM	> 100 µM	> 100 µM	> 100 µM	> 100 µM	> 100 µM	> 100 µM	> 100 µM	> 100 µM	> 100 µM	> 100 µM	–
O=C(NC(Nc1ccc(F)c(Cl)c1)(C(F)(F)F)C(F)(F)F)C(C(F)(F)F)C(F)(F)F	–	74.4 µM	> 100 µM	> 100 µM	57 µM	44.8 µM	> 100 µM	> 100 µM	81.3 µM	–	> 100 µM	> 100 µM	> 100 µM	63.4 µM
C[N+]1(C)CN(c2ccccc2)C2(CCN(CCCC(=O)c3cccs3)CC2)C1=O	–	> 100 µM	> 100 µM	> 100 µM	> 100 µM	> 100 µM	> 100 µM	> 100 µM	77.1 µM	> 100 µM	> 100 µM	> 100 µM	> 100 µM	> 100 µM
CSC(=NCCN=C(NS(=O)(=O)c1ccc(Cl)cc1)SC)NS(=O)(=O)c1ccc(Cl)cc1	–	> 100 µM	58 µM	> 100 µM	> 100 µM	–	> 100 µM	> 100 µM	–	51.3 µM	> 100 µM	42.6 µM	> 100 µM	–
Cc1ccc(/C=N/Nc2ncccn2)s1	–	> 100 µM	> 100 µM	> 100 µM	–	> 100 µM	> 100 µM	> 100 µM	> 100 µM	> 100 µM	> 100 µM	> 100 µM	> 100 µM	> 100 µM
COc1cc(CC2c3cc(OC)c(OC)cc3CCN2C)c(Oc2cc3c(cc2OC)-c2c(OC)c(OC)c(OC)c4c2C(C3)N(C)CC4)cc1OC (centres undefined)	–	20.9 µM	20.9 µM	–	> 42.5 µM	24.5 µM	32 µM	22.8 µM	13.4 µM	25 µM	29.5 µM	26 µM	13.6 µM	14.9 µM
CC1OC(=O)c2ccccc2NC1=O (centres undefined)	> 100 µM	> 100 µM	> 100 µM	–	> 100 µM	> 100 µM	> 100 µM	> 100 µM	> 100 µM	> 100 µM	> 100 µM	> 100 µM	> 100 µM	> 100 µM
CCCCCCCSCC(O)COC(c1ccccc1)(c1ccccc1)c1ccccc1 (centres undefined)	> 100 µM	> 100 µM	> 100 µM	> 100 µM	> 100 µM	> 100 µM	> 100 µM	> 100 µM	47.9 µM	–	> 100 µM	> 100 µM	> 100 µM	–
CC1(C)CC(=O)c2c(nc3ccc4ccccc4c3c2-c2ccc(NC(=O)CCCCC(=O)Nc3ccc(-c4c5c(nc6ccc7ccccc7c46)CC(C)(C)CC5=O)cc3)cc2)C1	> 100 µM	> 100 µM	> 100 µM	> 100 µM	> 100 µM	–	> 100 µM	> 100 µM	> 100 µM	> 100 µM	> 100 µM	> 100 µM	> 100 µM	–
CCCCCCCCCN1CCC(=O)C(C(=O)OC)C1 (centres undefined)	–	30.8 µM	33.9 µM	29.5 µM	54.6 µM	22 µM	21 µM	–	33 µM	34 µM	31.4 µM	–	24.7 µM	32.7 µM
CCN(CC)CCNc1ccc(C)c2sc3ccc(O)cc3c(=O)c12	–	3.27 µM	7.17 µM	–	1.16 µM	2.7 µM	3.2 µM	2.96 µM	2.3 µM	4.3 µM	9.95 µM	2.44 µM	2.99 µM	5.82 µM
CSCCC(NC(c1ccccc1)c1ccccc1)[P+](=O)O (centres undefined)	> 100 µM	> 100 µM	> 100 µM	–	> 100 µM	> 100 µM	> 100 µM	> 100 µM	> 100 µM	> 100 µM	> 100 µM	> 100 µM	> 100 µM	–
Nc1ccn(C2OC(COP(=O)(O)Oc3ccccc3)C(O)C2O)c(=O)n1 (centres undefined)	–	> 100 µM	> 100 µM	–	> 100 µM	> 100 µM	> 100 µM	> 100 µM	> 100 µM	> 100 µM	–	> 100 µM	> 100 µM	> 100 µM
CCC1(C)N=C(C(N)=O)c2ncn(N=C(C)C)c2N1 (centres undefined)	–	> 100 µM	> 100 µM	> 100 µM	–	> 100 µM	> 100 µM	> 100 µM	> 100 µM	> 100 µM	> 100 µM	> 100 µM	> 100 µM	> 100 µM
COc1ccc2c(c1)c1cc(OC)ccc1n2CCCCOc1ccc(-c2c3ccccc3c(-c3ccc(OCCCCn4c5ccc(OC)cc5c5cc(OC)ccc54)cc3)c3ccccc23)cc1	–	> 100 µM	> 100 µM	–	> 100 µM	> 100 µM	> 100 µM	> 100 µM	–	> 100 µM	> 100 µM	–	–	–
COCN1C(=O)[C@@H]2CCCN2C(=O)c2cc([N+](=O)[O-])ccc21	> 100 µM	> 100 µM	–	–	–	44.6 µM	> 100 µM	> 100 µM	> 100 µM	> 100 µM	> 100 µM	> 100 µM	> 100 µM	39.9 µM
Cc1nc(-c2nc([N+](=O)[O-])c([N+](=O)[O-])[nH]2)cs1	–	> 100 µM	> 100 µM	–	> 100 µM	> 100 µM	–	> 100 µM	> 100 µM	> 100 µM	> 100 µM	> 100 µM	> 100 µM	> 100 µM
CSCCCCCCCCCCOc1ccc(C=C2C(=C(C#N)C#N)c3ccccc3C2=C(C#N)C#N)cc1	–	–	26.9 µM	38.3 µM	64.5 µM	38.2 µM	39.6 µM	29.6 µM	31.9 µM	–	36.1 µM	31.2 µM	35.4 µM	35.1 µM
S=C(Nc1ccc(Br)cn1)NC12CC3CC(CC(C3)C1)C2	–	> 100 µM	26.4 µM	47.7 µM	67.6 µM	37.5 µM	25.9 µM	> 100 µM	–	40.8 µM	–	30 µM	> 100 µM	37 µM
